Experimental data reported in patent US20230120597A1, “CO-AGONISTS AT GLP-1 AND GIP RECEPTORS SUITABLE FOR ORAL DELIVERY” (Novo Nordisk A/S, priority 2020, published 2023).
Like-named read-outs stand apart in the source and are kept apart here. Starred links: 1 amine or outer side, 2 acyl side, 3 side chain; linkers in the order of their positions; H or OH if unused. Non-standard residues stand in square brackets, D forms with d. Residues, ends and D or L forms follow the SMILES beside them. Groups on a side chain read outwards from the residue. *: point of attachment. C18 diacid = O=C(O)CCCCCCCCCCCCCCCCC(=O)*; γGlu = O=C(O)[C@H](CCC(=O)[*:2])N[*:1]; εLys = N[C@@H](CCCCN[*:1])C(=O)[*:2]; Aib = CC(C)(N)C(=O)O

Assays:
human GIP receptor = molecular target: T1, human GIP receptor (Homo sapiens, UniProt P48546); test: In vitro functional potency, CRE luciferase reporter gene assay, whole BHK cells expressing hGIPR; type: cell-based; settings: BHK CRE luc2P hGIPR cells
T1 construct: expressed in transfected cells; host or cells: BHK (parent line BHKTS13), clone BHK CRE luc2P hGIPR
T1 sequence (P48546 22-466): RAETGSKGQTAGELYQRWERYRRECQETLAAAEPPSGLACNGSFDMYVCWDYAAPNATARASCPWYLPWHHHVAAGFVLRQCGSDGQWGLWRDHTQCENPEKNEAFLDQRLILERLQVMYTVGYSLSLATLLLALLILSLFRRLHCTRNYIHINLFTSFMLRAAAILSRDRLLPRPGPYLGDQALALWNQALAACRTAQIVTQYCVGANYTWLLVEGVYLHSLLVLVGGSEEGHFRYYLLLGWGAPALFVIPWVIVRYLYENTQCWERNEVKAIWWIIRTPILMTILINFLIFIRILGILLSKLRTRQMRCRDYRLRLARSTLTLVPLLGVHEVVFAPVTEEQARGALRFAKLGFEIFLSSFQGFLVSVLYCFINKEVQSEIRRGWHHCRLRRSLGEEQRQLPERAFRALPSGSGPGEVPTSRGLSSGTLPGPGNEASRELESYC

[1] = Pharmacokinetic study in minipigs after i.v. administration; settings: female, Gottingen, minipig, in vivo, iv
Protocol: The purpose of this example is to determine the half-life in vivo of the derivatives of the present invention after i.v. administration to minipigs, i.e. the prolongation of their time in the body and thereby their time of action. This is done in a pharmacokinetic (PK) study, where the terminal half-life of the derivative in question is determined. By terminal half-life is generally meant the period of time it takes to halve a certain plasma concentration, measured after the initial distribution phase.
Female Gottingen minipigs were obtained from Ellegaard Gottingen Minipigs (Dalmose, Denmark) approximately 7-14 months of age and weighing from approximately 16-35 kg were used in the studies. The minipigs were housed individually and fed restrictedly once daily with SDS minipig diet (Special Diets Services, Essex, UK).
After at 3 weeks of acclimatisation two permanent central venous catheters were implanted in vena cava caudalis in each animal. […]
Plasma was pipetted into Micronic tubes on dry ice and kept at −20° C. until analysed for plasma concentration of the compounds using ELISA, or a similar antibody-based assay, or LCMS. Individual plasma concentration-time profiles were analysed by a non-compartmental model in Phoenix WinNonLin ver. […] (Pharsight Inc., Mountain View, Calif., USA), and the resulting terminal half-lives (harmonic mean) determined.

CC[C@H](C)[C@H](NC(=O)[C@H](Cc1ccccc1)NC(=O)[C@H](CCC(=O)O)NC(=O)[C@H](CCCNC(=N)N)NC(=O)[C@H](C)NC(=O)[C@H](C)NC(=O)[C@H](CCC(N)=O)NC(=O)[C@H](CCCCNC(=O)[C@@H](N)CCCCNC(=O)[C@@H](N)CCCCNC(=O)CC[C@H](NC(=O)CCCCCCCCCCCCCCCCC(=O)O)C(=O)O)NC(=O)[C@H](CCC(=O)O)NC(=O)[C@H](CC(C)C)NC(=O)[C@H](CC(C)C)NC(=O)[C@@H](NC(=O)[C@H](CO)NC(=O)[C@H](Cc1ccc(O)cc1)NC(=O)[C@H](CC(=O)O)NC(=O)[C@H](CO)NC(=O)[C@@H](NC(=O)[C@H](Cc1ccccc1)NC(=O)[C@@H](NC(=O)CNC(=O)[C@H](CCC(=O)O)NC(=O)C(C)(C)NC(=O)[C@@H](N)Cc1ccc(O)cc1)[C@@H](C)O)[C@@H](C)O)[C@@H](C)CC)C(=O)N[C@@H](CC(N)=O)C(=O)N[C@@H](Cc1c[nH]c2ccccc12)C(=O)N[C@@H](CC(C)C)C(=O)N[C@@H](CC(C)C)C(=O)N[C@@H](C)C(=O)NCC(=O)NCC(=O)N1CCC[C@H]1C(=O)N[C@@H](CO)C(=O)N[C@@H](CO)C(=O)NCC(=O)N[C@@H](C)C(=O)N1CCC[C@H]1C(=O)N1CCC[C@H]1C(=O)N1CCC[C@H]1C(=O)N[C@@H](CO)C(=O)O [Compound No. 15] (H-Y[Aib]EGTFTSDYSILLEK([εLys-εLys-γGlu-C18 diacid])QAAREFINWLLAGGPSSGAPPPS-OH)
EC50 (human GIP receptor; 0% HSA, read-out: hGIPR, CRE Luc 0% HSA EC50): 0.0071 nM | EC50 (human GIP receptor; hGIPR, CRE Luc 1% HSA EC50, 1% HSA): 0.138 nM | half-life [1]: 36 h
